Reference: PMC11003488 (Journal of Enzyme Inhibition and Medicinal Chemistry, 2023)

Columns and labels:
MALME-3M = assay: NCI-60 SRB growth inhibition, one-dose and five-dose; format: cell-based; conditions: Homo sapiens
[1] = tested on: NCI 60-cell line panel (full panel); assay: NCI-60 SRB growth inhibition, full panel mean / MG-MID; format: cell-based, human
CAKI-1 = assay: NCI-60 SRB growth inhibition, one-dose and five-dose; format: cell-based; conditions: Homo sapiens
COLO 205 = assay: as above; format: cell-based; conditions: Homo sapiens
SF-268 = assay: as above; format: cell-based; conditions: Homo sapiens
HS 578 T = assay: as above; format: cell-based; conditions: Homo sapiens
HCT-15 = assay: as above; format: cell-based; conditions: Homo sapiens
ACHN = assay: as above; format: cell-based; conditions: Homo sapiens
K-562 = assay: as above; format: cell-based; conditions: Homo sapiens
NCI-H226 = assay: as above; format: cell-based; conditions: Homo sapiens
NCI-H322M = assay: as above; format: cell-based; conditions: Homo sapiens
786-0 = assay: as above; format: cell-based; conditions: Homo sapiens
NCI/ADR-RES = assay: as above; format: cell-based; conditions: Homo sapiens
SNB-75 = assay: as above; format: cell-based; conditions: Homo sapiens
SF-539 = assay: as above; format: cell-based; conditions: Homo sapiens
LOX IMVI = assay: as above; format: cell-based; conditions: Homo sapiens
OVCAR-5 = assay: as above; format: cell-based; conditions: Homo sapiens
SNB-19 = assay: as above; format: cell-based; conditions: Homo sapiens
OVCAR-4 = assay: as above; format: cell-based; conditions: Homo sapiens
CCRF-CEM = assay: as above; format: cell-based; conditions: Homo sapiens
HCT-116 = assay: as above; format: cell-based; conditions: Homo sapiens
HCC-2998 = assay: as above; format: cell-based; conditions: Homo sapiens
SR = assay: as above; format: cell-based; conditions: Homo sapiens
OVCAR-3 = assay: as above; format: cell-based; conditions: Homo sapiens
DU-145 = assay: as above; format: cell-based; conditions: Homo sapiens
BT-549 = assay: as above; format: cell-based; conditions: Homo sapiens
NCI-H522 = assay: as above; format: cell-based; conditions: Homo sapiens
UACC-62 = assay: as above; format: cell-based; conditions: Homo sapiens
HT29 = assay: as above; format: cell-based; conditions: Homo sapiens
A549/ATCC = assay: as above; format: cell-based; conditions: Homo sapiens
T-47D = assay: as above; format: cell-based; conditions: Homo sapiens, T47D
SK-MEL-5 = assay: as above; format: cell-based; conditions: Homo sapiens
SF-295 = assay: as above; format: cell-based; conditions: Homo sapiens
SK-MEL-2 = assay: as above; format: cell-based; conditions: Homo sapiens
RXF 393 = assay: as above; format: cell-based; conditions: Homo sapiens
NCI-H460 = assay: as above; format: cell-based; conditions: Homo sapiens
MCF7 = assay: as above; format: cell-based; conditions: Homo sapiens
MDA-MB-435 = assay: as above; format: cell-based; conditions: Homo sapiens
HOP-62 = assay: as above; format: cell-based; conditions: Homo sapiens
IGROV1 = assay: as above; format: cell-based; conditions: Homo sapiens
HOP-92 = assay: as above; format: cell-based; conditions: Homo sapiens
A498 = assay: as above; format: cell-based; conditions: Homo sapiens
[2] = read-out: percent growth inhibition

Structure (SMILES): COc1ccc(CNc2cccc(C(=O)/C=C/c3cccnc3)c2)cc1OC [Compound 5c, (E)-1–(3-((3,4-dimethoxybenzyl)amino)phenyl)-3-(pyridin-3-yl)prop-2-en-1-one]
- GI50 (MALME-3M): 12.5 µM
- inhibition at 10 µM (MALME-3M; [2]): 101%
- GI50 ([1]; Homo sapiens, 60 cell, read-out: Full panel GI50 mean): 7.67 µM
- Full panel Mean GI % ([1]; mean over NCI-60 panel, single dose 10 µM): 87.75%
- GI50 (CAKI-1; CAKI-1): 10.2 µM
- inhibition at 10 µM (CAKI-1; CAKI-1, read-out: percent growth inhibition): 39.8%
- GI50 (COLO 205; COLO 205): 16.5 µM
- inhibition at 10 µM (COLO 205; COLO 205, read-out: percent growth inhibition): 84.7%
- GI50 (SF-268; SF-268): 5.86 µM
- inhibition at 10 µM (SF-268; SF-268, read-out: percent growth inhibition): 40.4%
- GI50 (HS 578 T): 14.3 µM
- inhibition at 10 µM (HS 578 T; [2]): 98.3%
- GI50 (HCT-15; HCT-15): 2.01 µM
- inhibition at 10 µM (HCT-15; HCT-15, read-out: percent growth inhibition): 134%
- GI50 (ACHN): 3.95 µM
- inhibition at 10 µM (ACHN; [2]): 132%
- GI50 (K-562; K562): 2.71 µM
- inhibition at 10 µM (K-562; K562, read-out: percent growth inhibition): 89%
- GI50 (NCI-H226; NCI-H226): 14.7 µM
- inhibition at 10 µM (NCI-H226; NCI-H226, read-out: percent growth inhibition): 19.7%
- GI50 (NCI-H322M): 14.8 µM
- inhibition at 10 µM (NCI-H322M; [2]): 14.2%
- GI50 (786-0; 786-0): 3.68 µM
- inhibition at 10 µM (786-0; 786-0, read-out: percent growth inhibition): 133%
- GI50 (NCI/ADR-RES): 2.96 µM
- GI50 (SNB-75; SNB-75): 12.9 µM
- inhibition at 10 µM (SNB-75; SNB-75, read-out: percent growth inhibition): 34.2%
- GI50 (SF-539; SF-539): 12.4 µM
- inhibition at 10 µM (SF-539; SF-539, read-out: percent growth inhibition): 162%
- GI50 (LOX IMVI): 1.76 µM
- inhibition at 10 µM (LOX IMVI; [2]): 192%
- GI50 (OVCAR-5; OVCAR-5): 13.9 µM
- inhibition at 10 µM (OVCAR-5; OVCAR-5, read-out: percent growth inhibition): 68.4%
- GI50 (SNB-19; SNB-19): 9.49 µM
- inhibition at 10 µM (SNB-19; SNB-19, read-out: percent growth inhibition): 41.3%
- GI50 (OVCAR-4; OVCAR-4): 9.31 µM
- inhibition at 10 µM (OVCAR-4; OVCAR-4, read-out: percent growth inhibition): 80.1%
- GI50 (CCRF-CEM): 2.55 µM
- inhibition at 10 µM (CCRF-CEM; [2]): 87.1%
- GI50 (HCT-116; HCT-116, HCT-116, five-dose screening): 1.94 µM
- inhibition at 10 µM (HCT-116; HCT-116, read-out: percent growth inhibition): 183%
- GI50 (HCC-2998; HCC 2998): 2.04 µM
- inhibition at 10 µM (HCC-2998; HCC 2998, read-out: percent growth inhibition): 75.8%
- GI50 (SR): 2.48 µM
- inhibition at 10 µM (SR; [2]): 92%
- GI50 (OVCAR-3; OVCAR-3): 2.74 µM
- inhibition at 10 µM (OVCAR-3; OVCAR-3, read-out: percent growth inhibition): 107%
- GI50 (DU-145; DU-145): 12.4 µM
- inhibition at 10 µM (DU-145; DU-145, read-out: percent growth inhibition): 60.5%
- GI50 (BT-549; BT-549): 2.57 µM
- inhibition at 10 µM (BT-549; BT-549, read-out: percent growth inhibition): 135%
- GI50 (NCI-H522; NCI-H522): 13.6 µM
- inhibition at 10 µM (NCI-H522; NCI-H522, read-out: percent growth inhibition): 138%
- GI50 (UACC-62; UACC-62): 10.5 µM
- inhibition at 10 µM (UACC-62; UACC-62, read-out: percent growth inhibition): 61.1%
- GI50 (HT29; HT-29): 4.38 µM
- inhibition at 10 µM (HT29; HT-29, read-out: percent growth inhibition): 178%
- GI50 (A549/ATCC; A549): 17.2 µM
- inhibition at 10 µM (A549/ATCC; A549, read-out: percent growth inhibition): 17.6%
- GI50 (T-47D): 10 µM
- inhibition at 10 µM (T-47D; [2]): 105%
- GI50 (SK-MEL-5; SK-MEL-5): 5.86 µM
- inhibition at 10 µM (SK-MEL-5; SK-MEL-5, read-out: percent growth inhibition): 103%
- GI50 (SF-295; SF-295): 10.4 µM
- inhibition at 10 µM (SF-295; SF-295, read-out: percent growth inhibition): 53.7%
- GI50 (SK-MEL-2; SK-MEL-2): 15.1 µM
- inhibition at 10 µM (SK-MEL-2; SK-MEL-2, read-out: percent growth inhibition): 23.5%
- GI50 (RXF 393; RXF 393): 10.8 µM
- inhibition at 10 µM (RXF 393; RXF 393, read-out: percent growth inhibition): 64.9%
- GI50 (NCI-H460; NCI-H460): 5.22 µM
- inhibition at 10 µM (NCI-H460; NCI-H460, read-out: percent growth inhibition): 69%
- GI50 (MCF7; MCF7): 1.89 µM
- inhibition at 10 µM (MCF7; MCF7, read-out: percent growth inhibition): 186%
- GI50 (MDA-MB-435; MDA-MB-435): 2.46 µM
- inhibition at 10 µM (MDA-MB-435; MDA-MB-435, read-out: percent growth inhibition): 84.7%
- GI50 (HOP-62; HOP-62): 12.2 µM
- inhibition at 10 µM (HOP-62; HOP-62, read-out: percent growth inhibition): 30%
- GI50 (IGROV1; IGROV-1): 11 µM
- inhibition at 10 µM (IGROV1; IGROV-1, read-out: percent growth inhibition): 84.3%
- GI50 (HOP-92; HOP-92): 11 µM
- inhibition at 10 µM (HOP-92; HOP-92, read-out: percent growth inhibition): 36.8%
- GI50 (A498; A498): 13.6 µM
- inhibition at 10 µM (A498; A498, read-out: percent growth inhibition): 20%
